Laboratory results: ChEMBL document CHEMBL5543140 (J Med Chem, 2024)
pEC50, pKi: −log10 of the molar value. The source made the active and inactive calls. The rule behind the calls is not given here.

Columns and labels:
[1] = target: T1, 5-hydroxytryptamine receptor 2A (Homo sapiens, UniProt P28223); test: Agonist activity at human 5-HT2A receptor expressed in HEK293 cells assessed as IP2 production measured after 30 mins incubation by HTRF assay; format: functional, cell-based; conditions: read-out: EC50
T1 sequence (P28223 whole entry): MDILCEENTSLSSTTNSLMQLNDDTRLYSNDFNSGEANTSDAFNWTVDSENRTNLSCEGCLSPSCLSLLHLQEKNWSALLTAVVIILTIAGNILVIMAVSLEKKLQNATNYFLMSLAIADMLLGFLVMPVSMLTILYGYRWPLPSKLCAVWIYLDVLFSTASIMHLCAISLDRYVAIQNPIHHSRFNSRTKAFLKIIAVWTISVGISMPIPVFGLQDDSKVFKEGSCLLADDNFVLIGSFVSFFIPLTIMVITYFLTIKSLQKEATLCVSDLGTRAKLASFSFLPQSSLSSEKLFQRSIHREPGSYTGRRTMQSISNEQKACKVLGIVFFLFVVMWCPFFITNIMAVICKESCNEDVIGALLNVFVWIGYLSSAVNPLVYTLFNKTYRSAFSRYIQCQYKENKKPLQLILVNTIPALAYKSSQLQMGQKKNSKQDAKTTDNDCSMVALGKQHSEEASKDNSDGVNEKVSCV

[2] = target: T1, 5-hydroxytryptamine receptor 2A; test: Binding affinity to human [125I]LSD-labeled 5-HT2A receptor expressed in HEK293 cell membrane incubated for 60 mins; format: cell membranes
[3] = target: 5-hydroxytryptamine receptor 2B (Homo sapiens, UniProt P41595); test: Binding affinity to human [125I]LSD-labeled 5-HT2B receptor expressed in CHO cell membrane incubated for 60 mins; format: cell membranes
Chain of 5-hydroxytryptamine receptor 2B (P41595 whole entry): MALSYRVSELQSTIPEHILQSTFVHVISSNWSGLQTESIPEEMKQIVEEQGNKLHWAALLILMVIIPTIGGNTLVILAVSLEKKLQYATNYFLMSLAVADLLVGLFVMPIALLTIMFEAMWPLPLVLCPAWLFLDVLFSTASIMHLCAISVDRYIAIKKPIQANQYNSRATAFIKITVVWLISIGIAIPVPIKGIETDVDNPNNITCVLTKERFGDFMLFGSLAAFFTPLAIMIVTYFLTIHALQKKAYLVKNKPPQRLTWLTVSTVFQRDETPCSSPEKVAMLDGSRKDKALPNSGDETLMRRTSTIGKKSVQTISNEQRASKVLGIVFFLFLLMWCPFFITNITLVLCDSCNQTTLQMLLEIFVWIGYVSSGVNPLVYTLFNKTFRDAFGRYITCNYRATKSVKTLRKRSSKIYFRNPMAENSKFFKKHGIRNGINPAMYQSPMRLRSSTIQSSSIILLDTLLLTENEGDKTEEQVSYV

[4] = target: T2, 5-hydroxytryptamine receptor 2C (Homo sapiens, UniProt P28335); test: Binding affinity to human [125I]LSD-labeled 5-HT2C receptor expressed in HEK293 cell membrane incubated for 60 mins; format: cell membranes
T2 sequence (P28335 whole entry): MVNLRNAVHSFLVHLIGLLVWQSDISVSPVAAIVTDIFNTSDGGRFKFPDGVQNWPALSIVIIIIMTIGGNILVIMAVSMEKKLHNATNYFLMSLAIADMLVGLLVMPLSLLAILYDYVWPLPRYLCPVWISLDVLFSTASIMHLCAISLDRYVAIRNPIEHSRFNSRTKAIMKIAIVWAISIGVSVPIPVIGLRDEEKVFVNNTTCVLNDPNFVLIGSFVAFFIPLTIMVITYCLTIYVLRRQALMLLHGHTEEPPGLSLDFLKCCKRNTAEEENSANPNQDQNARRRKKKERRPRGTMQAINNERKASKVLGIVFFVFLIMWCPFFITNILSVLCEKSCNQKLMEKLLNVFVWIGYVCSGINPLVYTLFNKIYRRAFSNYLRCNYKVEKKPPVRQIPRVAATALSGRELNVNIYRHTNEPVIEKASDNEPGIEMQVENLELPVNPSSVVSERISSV

[5] = target: 5-hydroxytryptamine receptor 1B (Homo sapiens, UniProt P28222); test: Displacement of [3H]5-CT from 5-HT1B receptor (unknown origin) assessed as inhibition binding
Chain of 5-hydroxytryptamine receptor 1B (P28222 whole entry): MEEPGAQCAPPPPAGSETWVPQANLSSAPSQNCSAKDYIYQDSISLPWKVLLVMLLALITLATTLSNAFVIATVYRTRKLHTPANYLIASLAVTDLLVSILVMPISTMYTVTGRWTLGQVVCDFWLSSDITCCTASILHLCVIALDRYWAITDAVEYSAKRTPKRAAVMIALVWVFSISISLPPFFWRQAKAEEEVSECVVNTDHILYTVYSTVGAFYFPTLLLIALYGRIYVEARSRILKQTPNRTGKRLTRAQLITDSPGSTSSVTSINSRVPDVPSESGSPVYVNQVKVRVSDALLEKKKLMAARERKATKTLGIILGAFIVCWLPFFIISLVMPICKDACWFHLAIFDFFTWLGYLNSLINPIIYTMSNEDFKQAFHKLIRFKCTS

[6] = target: Muscarinic acetylcholine receptor M1 (Homo sapiens) (UniProt P11229); test: Displacement of [3H]-Pirenzepine from human muscarinic M1 expressed in CHO-K1 cells membrane at 10 uM incubated for 60 mins by microbeta liquid scintillation counting analysis; format: cell membranes; conditions: Cell membrane
Chain of Muscarinic acetylcholine receptor M1 (Homo sapiens) (P11229 whole entry): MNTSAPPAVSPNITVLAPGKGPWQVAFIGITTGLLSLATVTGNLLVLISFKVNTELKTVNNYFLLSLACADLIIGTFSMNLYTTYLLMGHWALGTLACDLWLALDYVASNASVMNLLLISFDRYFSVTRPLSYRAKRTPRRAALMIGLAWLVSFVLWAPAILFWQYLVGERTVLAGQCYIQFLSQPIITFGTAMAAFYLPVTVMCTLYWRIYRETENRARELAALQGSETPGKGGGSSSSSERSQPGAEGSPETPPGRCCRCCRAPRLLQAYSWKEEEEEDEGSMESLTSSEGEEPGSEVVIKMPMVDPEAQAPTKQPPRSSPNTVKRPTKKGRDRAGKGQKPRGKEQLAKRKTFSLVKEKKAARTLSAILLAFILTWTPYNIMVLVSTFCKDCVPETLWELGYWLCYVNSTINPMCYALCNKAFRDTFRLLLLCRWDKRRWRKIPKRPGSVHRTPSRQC

[7] = system: Mus musculus; test: Psychedelic effect in C57BL/6J mouse assessed as maximal number of 5-HT2A receptor dependent head-twitch responses by visual observation at 3 mg/kg, sc (reference value: 3); format: functional
[8] = system: Mus musculus; test: Psychedelic effect in C57BL/6J mouse assessed as induction of 5-HT2A receptor dependent maximal head-twitch responses by visual observation at 1 mg/kg, sc at 100 mins; format: functional, organism-based
[9] = system: Mus musculus; test: Psychedelic effect in C57BL/6J mouse assessed as induction of 5-HT2A receptor dependent head-twitch responses by visual observation at 1 to 10 mg/kg, po measured for 120 to 150 mins relative to DOI; format: functional, organism-based; conditions: dose 1-10 mg/kg, time lower […], time upper 150.0 min
[10] = system: Mus musculus; test: Locomotor activity in C57BL/6J mouse assessed as distance traveled at 3 mg/kg, po measured for 15 to 25 mins (reference value: 1710 +/- 120 cm) by Ethovision tracking system; format: functional; conditions: time 15-25 min
[11] = system: Mus musculus; test: Psychedelic effect in C57BL/6J mouse assessed as head-twitch responses reversibility by visual observation at 3 mg/kg, sc once a day for 3 days following treatment free for 48 hrs followed by redosed at 3 mg/kg, sc; format: functional, organism-based; conditions: time 3.0 day
[12] = Ex vivo binding in C57BL/6J mouse brain frontal cortex assessed as specific binding [3H]Cimbi-36 at 1 mg/kg, sc measured after 220 mins by liquid scintillation counting analysis (reference value: 1092 +/- 53); format: functional; conditions: 3.667 h
[13] = Ex vivo binding in C57BL/6J mouse brain frontal cortex assessed as inhibition of [3H]Cimbi-36 binding at 1 mg/kg, sc measured after 220 mins by liquid scintillation counting analysis (reference value: 0%); format: functional; conditions: 3.667 h
[14] = system: Hippocampus; test: Induction of neuroplasticity in C57BL/6J mouse assessed as increase in BDNF mRNA expression in brain hippocampus at 3 mg/kg, sc single dose by RT-PCR analysis; format: functional, organism-based
[15] = system: Hippocampus; test: Induction of neuroplasticity in C57BL/6J mouse assessed as increase in c-Fos mRNA expression in brain hippocampus at 3 mg/kg, sc single dose by RT-PCR analysis; format: functional, organism-based
[16] = system: Hippocampus; test: Induction of neuroplasticity in C57BL/6J mouse assessed as increase in EGR2 mRNA expression in brain hippocampus at 3 mg/kg, sc single dose by RT-PCR analysis; format: functional, organism-based
[17] = system: Mus musculus; test: Induction of neuroplasticity in C57BL/6J mouse assessed as increase in EGR2 mRNA expression in brain frontal cortex at 0.3 mg/kg, sc single dose by RT-PCR analysis; format: functional, organism-based
[18] = system: Hippocampus; test: Induction of neuroplasticity in C57BL/6J mouse assessed as increase in CREB1 mRNA expression in brain hippocampus at 0.3 mg/kg, sc single dose by RT-PCR analysis; format: functional, organism-based
[19] = system: Hippocampus; test: Induction of neuroplasticity in C57BL/6J mouse assessed as increase in c-Fos mRNA expression in brain hippocampus at 0.3 mg/kg, sc single dose by RT-PCR analysis; format: functional, organism-based
[20] = Metabolic stability in mouse liver microsomes assessed as half life at 1 uM incubated for 120 mins in presence of NADPH; format: ADME, Microsome
[21] = Metabolic stability in rat liver S9 fractions assessed as half life; format: ADME, subcellular; conditions: liver S9 fraction
[22] = Initial plasma concentration in Wistar rat at 1 mg/kg, iv measured upto 48 hrs; format: ADME, organism-based
[23] = Renal clearance in Wistar rat plasma at 1 mg/kg, iv measured upto 48 hrs; format: ADME, organism-based
[24] = Cmax in Wistar rat plasma at 5 mg/kg, po measured upto 48 hrs; format: ADME, organism-based
[25] = MRTlast in Wistar rat brain at 1 mg/kg, iv measured upto 48 hrs; format: ADME, organism-based
[26] = AUClast in Wistar rat brain at 5 mg/kg, po measured upto 48 hrs; format: ADME, organism-based
[27] = Brain to plasma ratio in Wistar rat at 5 mg/kg, po measured upto 48 hrs; format: ADME, organism-based; conditions: brain and plasma, read-out: BPR
[28] = AUCinf in male Sprague-Dawley rat plasma at 1 mg/kg, iv measured upto 8 hrs by LC-MS/MS analysis; format: ADME, organism-based
[29] = MRTinf in male Sprague-Dawley rat plasma at 1 mg/kg, iv measured upto 8 hrs by LC-MS/MS analysis; format: ADME, organism-based
[30] = AUClast in male Sprague-Dawley rat brain at 1 mg/kg, iv measured upto 8 hrs by LC-MS/MS analysis; format: ADME, organism-based
[31] = Tmax in male Sprague-Dawley rat CSF at 1 mg/kg, iv measured upto 8 hrs by LC-MS/MS analysis; format: ADME, organism-based, Cerebrospinal fluid
[32] = AUCinf in male Sprague-Dawley rat CSF at 1 mg/kg, iv measured upto 8 hrs by LC-MS/MS analysis; format: ADME, organism-based, Cerebrospinal fluid
[33] = target: Alpha-2C adrenergic receptor (Homo sapiens, UniProt P18825); test: biochemical
Chain of Alpha-2C adrenergic receptor (P18825 whole entry): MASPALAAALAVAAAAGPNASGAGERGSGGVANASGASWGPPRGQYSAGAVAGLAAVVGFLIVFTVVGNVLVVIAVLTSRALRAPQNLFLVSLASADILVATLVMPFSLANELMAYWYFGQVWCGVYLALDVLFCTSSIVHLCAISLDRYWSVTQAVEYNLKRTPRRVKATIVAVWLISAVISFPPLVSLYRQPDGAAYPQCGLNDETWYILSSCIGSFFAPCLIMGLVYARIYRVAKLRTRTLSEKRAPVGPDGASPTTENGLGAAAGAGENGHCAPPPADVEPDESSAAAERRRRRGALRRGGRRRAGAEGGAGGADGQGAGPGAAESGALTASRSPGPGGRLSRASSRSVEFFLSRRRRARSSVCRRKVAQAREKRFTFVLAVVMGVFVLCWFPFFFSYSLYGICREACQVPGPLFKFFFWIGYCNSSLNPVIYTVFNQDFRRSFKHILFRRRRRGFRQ

Compound: COc1cc([Se]C(F)(F)F)c(OC)cc1CCN.Cl
- pEC50 [1]: 8.44
- pKi [2]: 8.39
- pKi [3]: 8.00
- pKi [4]: 8.17
- pKi [5]: 6.02
- inhibition [6]: 88%
- Activity [7]: 23
- Activity [8]: Active
- Activity [9]: Active
- Activity [10]: 3008 cm
- Activity [11]: Active
- Activity [12]: 796
- inhibition in vivo at 1 mg/kg [13]: 27%
- Activity [14]: inactive
- Activity [15]: inactive
- Activity [16]: inactive
- Activity [17]: Active
- Activity [18]: inactive
- Activity [19]: inactive
- half-life at 1 µM [20]: > 2 h
- half-life [21]: 1.27 h
- C0 at 48 h [22]: 67.2 ng/mL
- CL renal at 48 h [23]: 1.13 mL/min/kg
- Cmax [24]: 18.6 ng/mL
- MRT last at 48 h [25]: 2.54 h
- AUC(0-t) at 48 h [26]: 1860 ng·h/mL
- Kp at 48 h [27]: 57.9
- AUC(0-inf) [28]: 210 ng·h/mL
- MRT inf [29]: 1.19 h
- AUC(0-t) at 8 h [30]: 3220 ng·h/mL
- Tmax [31]: 4.98 min
- AUC(0-inf) [32]: 51.4 ng·h/mL
- pKi [33]: 6.97
